According to ChEMBL document CHEMBL3351602 (Eur J Med Chem, 2014):
Active and inactive are the calls of the source. No cut-off for these calls is given here.

Tests used:
MDA-MB-231 [1] = assay: Cytotoxicity against human MDA-MB-231 cells assessed as induction of cell death at 0.5 to 25 uM after 48 hrs by MTT assay; format: functional, cell-based
MCF7 [2] = assay: Cytotoxicity against human MCF7 cells assessed as induction of cell death at 0.5 to 25 uM after 48 hrs by MTT assay; format: functional, cell-based
MDA-MB-231 [3] = assay: Cytotoxicity against human MDA-MB-231 cells assessed as reduction in cell viability after 96 hrs by MTT assay; format: functional, cell-based; details: MDA-MB-231, 96 h
MCF7 [4] = assay: Cytotoxicity against human MCF7 cells assessed as reduction in cell viability after 96 hrs by MTT assay; format: functional, cell-based; details: MCF7, 96 h
MCF7 [5] = assay: Induction of cell death in human MCF7 cells at 10 to 50 uM after 24 hrs using calcein AM and ethidium homodimer-1 by live/dead assay; format: functional
MDA-MB-231 [6] = assay: Induction of cell death in human MDA-MB-231 cells at 10 uM after 24 hrs using calcein AM and ethidium homodimer-1 by live/dead assay; format: functional
MDA-MB-231 [7] = assay: Ratio of ospemifene IC50 to compound IC50 for human MDA-MB-231 cells assessed as reduction in cell viability after 96 hrs by MTT assay; format: functional
MDA-MB-231 [8] = assay: Cytotoxicity against human MDA-MB-231 cells assessed as reduction in cell viability after 48 hrs by MTT assay; format: functional, cell-based; details: MDA-MB-231, 48 h
MDA-MB-231 [9] = assay: Ratio of tamoxifen IC50 to compound IC50 for human MDA-MB-231 cells assessed as reduction in cell viability after 96 hrs by MTT assay; format: functional
MDA-MB-231 [10] = assay: Induction of cell death in human MDA-MB-231 cells at 10 to 50 uM after 24 hrs using calcein AM and ethidium homodimer-1 by live/dead assay; format: functional, cell-based
MCF7 [11] = assay: Induction of cell death in human MCF7 cells at 10 uM after 24 hrs using calcein AM and ethidium homodimer-1 by live/dead assay; format: functional
MCF7 [12] = assay: Ratio of ospemifene IC50 to compound IC50 for human MCF7 cells assessed as reduction in cell viability after 96 hrs by MTT assay; format: functional
MEF = assay: Cytotoxicity against MEFs assessed as reduction in cell viability up to 100 uM after 48 to 96 hrs by MTT assay; format: cell-based; details: mouse
MCF7 [13] = assay: Ratio of tamoxifen IC50 to compound IC50 for human MCF7 cells assessed as reduction in cell viability after 96 hrs by MTT assay; format: functional
MCF7 [14] = assay: Cytotoxicity against human MCF7 cells assessed as reduction in cell viability after 48 hrs by MTT assay; format: functional, cell-based; details: MCF7, 48 h

Structure (SMILES)	Activity (MDA-MB-231 [1])	Activity (MCF7 [2])	IC50 (MDA-MB-231 [3])	IC50 (MCF7 [4])	Activity (MCF7 [5])	Activity (MDA-MB-231 [6])	Ratio IC50 (MDA-MB-231 [7])	IC50 (MDA-MB-231 [8])	Ratio IC50 (MDA-MB-231 [9])	Activity (MDA-MB-231 [10])	Activity (MCF7 [11])	Ratio IC50 (MCF7 [12])	Activity (MEF)	Ratio IC50 (MCF7 [13])	IC50 (MCF7 [14])
[N-]=[N+]=NCCOc1ccc(/C(=C(/CCCl)c2ccccc2)c2ccccc2)cc1	inactive	inactive	–	–	–	–	–	–	–	–	–	–	–	–	–
CS(=O)(=O)OCCOc1ccc(/C(=C(/CCCl)c2ccccc2)c2ccccc2)cc1	inactive	inactive	–	–	–	–	–	–	–	–	–	–	–	–	–
NCCOc1ccc(/C(=C(/CCN)c2ccccc2)c2ccccc2)cc1	Active	Active	13.4 µM	11.2 µM	Active	70%	5	17.1 µM	>5	Active	70%	5	Non-toxic	>5	23.6 µM
OCCOc1ccc(/C(=C(/CCCl)c2ccccc2)c2ccccc2)cc1 [OSPEMIFENE]	–	–	> 100 µM	55 µM	–	–	–	> 100 µM	–	–	–	–	Non-toxic	–	> 100 µM
NCC/C(=C(\c1ccccc1)c1ccc(OCCO)cc1)c1ccccc1	Active	Active	14.5 µM	12.4 µM	50%	–	5	25 µM	>5	Active	–	5	Non-toxic	>5	15.9 µM
CC/C(=C(\c1ccccc1)c1ccc(OCCN(C)C)cc1)c1ccccc1 [TAMOXIFEN]	–	–	–	–	–	–	–	–	–	–	–	–	Non-toxic	–	–
O=C(NCC/C(=C(\c1ccccc1)c1ccc(OCCO)cc1)c1ccccc1)Oc1ccccc1	Active	Active	62.3 µM	50 µM	–	–	–	> 100 µM	–	–	–	–	–	–	76 µM
[N-]=[N+]=NCCOc1ccc(/C(=C(/CCN=[N+]=[N-])c2ccccc2)c2ccccc2)cc1	inactive	inactive	–	–	–	–	–	–	–	–	–	–	–	–	–
[N-]=[N+]=NCC/C(=C(\c1ccccc1)c1ccc(OCCO)cc1)c1ccccc1	–	Active	> 100 µM	> 100 µM	–	–	–	> 100 µM	–	–	–	–	–	–	> 100 µM
